Data reported in paper PMC8566969, “Comparison of viral RNA–host protein interactomes across pathogenic RNA viruses informs rapid antiviral drug discovery for SARS-CoV-2” (Cell Research, 2021).
Where two headings read alike, the source gives them in different places.

Assays:
[1] = tested on: SARS-CoV-2 B.1.351 variant
[2] = tested on: SARS-CoV-2 B.1.351 variant; assay: microbe, parasite or virus in culture; conditions: Severe acute respiratory syndrome coronavirus 2, A549-ACE2, 48 h, read-out: IC50, SARS-CoV-2 B.1.351
[3] = tested on: SARS-CoV-2 B.1.351 variant; assay: microbe, parasite or virus in culture; type: cell-based; conditions: Severe acute respiratory syndrome coronavirus 2, Huh-7.5.1, 48 h, read-out: IC50, SARS-CoV-2 B.1.351 in Huh7.5.1 cells

Structure (SMILES)	Inhibitory effect in B.1.351-infected cells (in words) [1]	SI (CC50/IC50), SARS-CoV-2 B.1.351 [1]	IC50 [2] [µM]	IC50 [3] [µM]
COc1cc2c(cc1OC)[C@@H]1C(=O)c3ccc4c(c3O[C@@H]1CO2)C=CC(C)(C)O4 [Deguelin]	exerted inhibitory effects	7.44	4.67	–
CN1CCN(CCCN2c3ccccc3Sc3ccc(C(F)(F)F)cc32)CC1 [Trifluoperazine]	exerted inhibitory effects	13.25	2.79	–
COc1ccc2cc1Oc1ccc(cc1)C[C@H]1c3c(cc4c(c3Oc3cc5c(cc3OC)CCN(C)[C@@H]5C2)OCO4)CCN1C [Cepharanthine]	exerted inhibitory effects	128.83	0.24	0.06
CNC(=O)c1cc(Oc2ccc(NC(=O)Nc3ccc(Cl)c(C(F)(F)F)c3)cc2)ccn1 [Sorafenib]	exerted inhibitory effects	7.6	1.7	–
